# Assays:
# Type in all cases: in vivo
# [1] = system: barnyardgrass (Echinochloa crus-galli); test: Test A pre-/postemergence plant response
# In short: (§1)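 Greenhouse trial, ~10 days. Soil (loam/sand) sprayed preemergence after seeding; emerged plants (1–2 leaf, 2–10 cm) sprayed postemergence in parallel. Response = visual injury vs untreated control, 0–100.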
# corn (Zea mays) = test: Test A pre-/postemergence plant response
# In short: as §1
# [2] = system: giant foxtail (Setaria faberii); test: Test A pre-/postemergence plant response
# In short: as §1
# [3] = system: large crabgrass (Digitaria sanguinalis); test: Test A pre-/postemergence plant response
# In short: as §1
# [4] = system: morningglory (Ipomoea spp.); test: Test A pre-/postemergence plant response
# In short: as §1
# [5] = system: pigweed (Amaranthus retroflexus); test: Test A pre-/postemergence plant response
# In short: as §1
# [6] = system: velvetleaf (Abutilon theophrasti); test: Test A pre-/postemergence plant response
# In short: as §1
# [7] = system: wheat (Triticum aestivum); test: Test A pre-/postemergence plant response
# In short: as §1
# [8] = system: barnyardgrass (Echinochloa crus-galli); test: Test B flooded paddy test; details: for Plant response rating, Barnyardgrass: Flood (flooded paddy test), 13 to 15 days
# In short: (§2)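 Flooded-pot test: water raised to 3 cm above soil when treating, compound put in the water, level unchanged thereafter. Plants were at 2 leaves. Readout after 13 to 15 days, visual, relative to controls; 0 signifies no effect and 100 complete control.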
# [9] = system: ducksalad (Heteranthera limosa); test: Test B flooded paddy test; details: for Plant response rating, Ducksalad: Flood (flooded paddy test), 13 to 15 days
# In short: as §2
# rice (Oryza sativa) = test: Test B flooded paddy test; details: for Plant response rating, Rice: Flood (flooded paddy test), 13 to 15 days
# In short: as §2
# [10] = system: umbrella sedge (Cyperus difformis); test: Test B flooded paddy test; details: for Plant response rating, Sedge, Umbrella: Flood (flooded paddy test), 13 to 15 days
# In short: as §2
# [11] = Postemergence, 125 g ai/ha, visual injury, 0 to 100 scale (0 no effect, 100 complete control), approx. ten days
# [12] = Postemergence, 500 g ai/ha, 0 to 100 scale, 0 = no effect, 100 = complete control, approx. ten days
# [13] = Preemergence, 125 g ai/ha, 0 to 100 scale, 0 = no effect, 100 = complete control
# [14] = Preemergence, 500 g ai/ha, visual injury, 0 to 100 scale (0 no effect, 100 complete control), approx. ten days
# [15] = 250 g ai/ha, flooded paddy test, visual rating on 0 to 100 scale (0 no effect, 100 complete control) after 13 to 15 days
# [16] = 62 g ai/ha, scale of 0 to 100 where 0 is no effect and 100 is complete control
# [17] = 125 g ai/ha, scale 0 to 100, 0 is no effect, 100 is complete control
# [18] = Flood, 31 g ai/ha, scale 0 to 100 (0 no effect, 100 complete control)
compound,measurement,setting,value
O=C1CCCC(O)=C1C(=O)c1cnc(-c2ccc(Cl)s2)n(-c2ccccc2)c1=O [Compound 65],Barnyardgrass plant response rating,[1]; [11],10
same,"Plant response rating, Barnyardgrass",[1]; [12],50
same,"Plant response rating, Barnyardgrass",[1]; [13],0
same,"Plant response rating, Barnyardgrass",[1]; [14],10
same,Corn plant response rating,corn (Zea mays); [11],0
same,"Plant response rating, Corn",corn (Zea mays); [12],0
same,"Plant response rating, Corn",corn (Zea mays); [13],0
same,"Plant response rating, Corn",corn (Zea mays); [14],0
same,"Foxtail, Giant plant response rating",[2]; [11],10
same,"Plant response rating, Foxtail, Giant",[2]; [12],40
same,"Plant response rating, Foxtail, Giant",[2]; [13],0
same,"Plant response rating, Foxtail, Giant",[2]; [14],40
same,"Crabgrass, Large plant response rating",[3]; [11],30
same,"Plant response rating, Crabgrass, Large",[3]; [12],60
same,"Plant response rating, Crabgrass, Large",[3]; [13],10
same,"Plant response rating, Crabgrass, Large",[3]; [14],80
same,Morningglory plant response rating,[4]; [11],50
same,"Plant response rating, Morningglory",[4]; [12],60
same,"Plant response rating, Morningglory",[4]; [13],0
same,"Plant response rating, Morningglory",[4]; [14],0
same,Pigweed plant response rating,[5]; [11],20
same,"Plant response rating, Pigweed",[5]; [12],60
same,"Plant response rating, Pigweed",[5]; [13],0
same,"Plant response rating, Pigweed",[5]; [14],0
same,Velvetleaf plant response rating,[6]; [11],90
same,"Plant response rating, Velvetleaf",[6]; [12],100
same,"Plant response rating, Velvetleaf",[6]; [13],30
same,"Plant response rating, Velvetleaf",[6]; [14],50
same,Wheat plant response rating,[7]; [11],0
same,"Plant response rating, Wheat",[7]; [12],0
same,"Plant response rating, Wheat",[7]; [13],0
same,"Plant response rating, Wheat",[7]; [14],0
same,"Plant response rating, Flood, Barnyardgrass",[8]; [15],0
same,"Plant response rating, Barnyardgrass",[8]; [16],0
same,"Plant response rating, Barnyardgrass",[8]; [17],0
same,Barnyardgrass plant response rating,[8]; [18],0
same,"Plant response rating, Flood, Ducksalad",[9]; [15],0
same,"Plant response rating, Ducksalad",[9]; [16],0
same,"Plant response rating, Ducksalad",[9]; [17],0
same,Ducksalad plant response rating,[9]; [18],0
same,"Plant response rating, Flood, Rice",rice (Oryza sativa); [15],0
same,"Plant response rating, Rice",rice (Oryza sativa); [16],0
same,"Plant response rating, Rice",rice (Oryza sativa); [17],0
same,Rice plant response rating,rice (Oryza sativa); [18],0
same,"Plant response rating, Flood, Sedge, Umbrella",[10]; [15],0
same,"Plant response rating, Sedge, Umbrella",[10]; [16],0
same,"Plant response rating, Sedge, Umbrella",[10]; [17],0
same,"Sedge, Umbrella plant response rating",[10]; [18],0

# Reference: patent US8952024B2, “Herbicidal pyrimidone derivatives” (E I du Pont de Nemours and Company, priority 2009, dated 2015)
